In publication PMC6019134, “1,2,6-Thiadiazinones as Novel Narrow Spectrum Calcium/Calmodulin-Dependent Protein Kinase Kinase 2 (CaMKK2) Inhibitors” (Molecules : A Journal of Synthetic Chemistry and Natural …, 2018):

Experiments:
Assay in all cases: DSF thermal shift, kinase panel
Assay type in all cases: binding
Conditions in all cases: 10 μM compound
BRAFA = target: T1, BRAFA (Homo sapiens, UniProt P15056)
T1 construct: purchased in-house (home-made panel, SGC-style construct names)
Description: (§1) The corresponding dianilino-TDZs (1–5) were tested on a panel of 46 protein kinases representing the major kinome branches at a concentration of 10 μM using a Differential Scanning Fluorimetry (DSF). Only analogues 1–3 induced a significant (>2 °C) thermal shift when incubated with a subset of the proteins (Table 1).
(§2) Kinase selectivity assay—A home-made kinase panel was generated for the following enzymes: AAK1, BMP2K, BMX, BRAF, CAMK1D, CAMK1G, CAMKK1, CAMKK2B, CDC42BPA, CDK2, CDKL1, CHEK2, CLK1, CSNK1G1, CSNK1G3, CSNK2A1, DYRK1A, DYRK2A, EPHA2, GAK, GSG2, MAPK1, MAP2K7, MAPK14B, MAPK3, PHKG2, PIM1, PLK1, PKMYT1, PRPF4B, RPS6KA1A, RPS6KA5A, RPS6KA6A, SLK, SRPK1, SRPK2, STK3, STK6, STK10, STK17A, STK24, STK38L, TRIB2, TTK, VRK1 and VRK2. Proteins were produced in E. coli, purified in a Ni-chelate column, followed by overnight digestion using TEV protease (made in house with an N-terminal 6xHis tag) and dialysis to remove imidazole. To clear samples of uncleaved proteins and the TEV protease, samples were loaded on new Ni-chelate columns. The flow through was collected, concentrated and loaded to a HiLoad Superdex 200 16/600 column (GE Healthcare, Chicago, IL, USA) for final polishing and buffer exchange.
(§3) Starting from 100 µM protein stocks, our kinase panel enzymes were diluted to 1 µM in buffer 100 mM K2HPO4 pH 7.5 containing 150 mM NaCl, 10% glycerol and 5X dye (Applied Biosystems catalogue 4461806). The protein/dye mixture was transferred to a 384-well PCR microplate having 20 µL per well. Compounds in DMSO at 10 mM concentration were added in 20 nL volume, using a liquid handling device setup with a pin head, to make 10 µM compound concentration in the assay plate.
(§4) Protein thermal shift data was measured in a qPCR instrument (Applied Biosystems QuantStudio 6) programmed to equilibrate the plate at 25 °C for 5 min followed by ramping the temperature to 95 °C at a rate of 0.05 °C/s. Data was processed using Protein Thermal shift software (Applied Biosystems) by fitting experimental curves to a Boltzmann function to calculate differential thermal shifts (dTm) referenced to protein/dye in 0.2% DMSO.

STK10A = target: T2, STK10A (Homo sapiens, UniProt O94804)
T2 construct: TEV-cleavable (cleaved yes); made in house; host or cells: E. coli
Description: as §1, §2, §3, §4

GAKA = target: T3, GAKA (Homo sapiens, UniProt O14976)
T3 construct: purchased in-house (home-made panel, SGC-style construct names)
T3 sequence (O14976 1-1311): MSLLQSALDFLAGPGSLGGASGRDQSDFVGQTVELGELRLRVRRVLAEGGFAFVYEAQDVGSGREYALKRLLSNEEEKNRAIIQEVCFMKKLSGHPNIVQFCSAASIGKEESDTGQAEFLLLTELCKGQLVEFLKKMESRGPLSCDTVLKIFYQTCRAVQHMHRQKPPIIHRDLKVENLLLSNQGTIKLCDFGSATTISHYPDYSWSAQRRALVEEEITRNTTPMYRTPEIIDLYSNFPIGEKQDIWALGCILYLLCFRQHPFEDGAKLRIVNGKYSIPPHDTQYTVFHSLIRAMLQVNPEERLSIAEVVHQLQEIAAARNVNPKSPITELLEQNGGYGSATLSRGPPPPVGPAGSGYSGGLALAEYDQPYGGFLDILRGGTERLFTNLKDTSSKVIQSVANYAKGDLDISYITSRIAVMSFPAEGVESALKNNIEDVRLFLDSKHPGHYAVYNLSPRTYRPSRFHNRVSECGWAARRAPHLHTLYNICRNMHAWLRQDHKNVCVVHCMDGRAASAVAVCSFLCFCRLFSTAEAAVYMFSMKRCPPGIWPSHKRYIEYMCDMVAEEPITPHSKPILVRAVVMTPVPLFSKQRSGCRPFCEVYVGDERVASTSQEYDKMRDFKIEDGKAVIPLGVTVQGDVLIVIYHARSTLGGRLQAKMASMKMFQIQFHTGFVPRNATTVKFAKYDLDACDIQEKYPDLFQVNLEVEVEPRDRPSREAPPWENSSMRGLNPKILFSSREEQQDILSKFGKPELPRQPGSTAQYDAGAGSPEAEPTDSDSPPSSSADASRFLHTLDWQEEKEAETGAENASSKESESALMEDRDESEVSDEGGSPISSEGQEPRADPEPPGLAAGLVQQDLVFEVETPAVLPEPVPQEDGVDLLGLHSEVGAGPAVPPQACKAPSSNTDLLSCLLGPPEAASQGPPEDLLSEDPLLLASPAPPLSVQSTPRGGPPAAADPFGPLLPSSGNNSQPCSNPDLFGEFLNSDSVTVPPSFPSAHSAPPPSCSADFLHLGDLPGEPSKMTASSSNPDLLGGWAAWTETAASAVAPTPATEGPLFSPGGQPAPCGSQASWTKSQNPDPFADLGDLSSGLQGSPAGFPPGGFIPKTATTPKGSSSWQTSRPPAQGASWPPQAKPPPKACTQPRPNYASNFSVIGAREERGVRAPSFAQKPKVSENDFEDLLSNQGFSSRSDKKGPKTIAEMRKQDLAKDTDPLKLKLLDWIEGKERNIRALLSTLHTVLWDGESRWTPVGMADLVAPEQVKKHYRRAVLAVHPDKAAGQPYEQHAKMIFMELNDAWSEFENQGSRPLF
Description: as §1, §2, §3, §4

PHKG2A = target: T4, PHKG2A (Homo sapiens, UniProt P15735)
T4 construct: purchased in-house (home-made panel, SGC-style construct names)
T4 sequence (P15735 1-406): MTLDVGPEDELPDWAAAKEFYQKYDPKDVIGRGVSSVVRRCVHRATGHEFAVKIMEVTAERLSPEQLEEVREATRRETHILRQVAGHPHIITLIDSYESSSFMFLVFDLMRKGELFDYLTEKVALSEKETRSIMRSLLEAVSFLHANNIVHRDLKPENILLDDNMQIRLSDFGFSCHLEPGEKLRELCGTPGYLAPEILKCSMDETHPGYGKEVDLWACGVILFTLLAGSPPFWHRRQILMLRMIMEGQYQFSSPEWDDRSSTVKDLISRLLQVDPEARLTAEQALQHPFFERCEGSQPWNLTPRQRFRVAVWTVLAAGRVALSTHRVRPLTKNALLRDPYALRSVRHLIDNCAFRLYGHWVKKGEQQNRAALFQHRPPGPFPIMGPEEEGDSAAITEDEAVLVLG
Description: as §1, §2, §3, §4

VRK2A = target: T5, VRK2A (Homo sapiens, UniProt Q86Y07)
T5 construct: TEV-cleavable (cleaved yes); made in house; host or cells: E. coli
Description: as §1, §2, §3, §4

PLK1A = target: T6, PLK1A (Homo sapiens, UniProt P53350)
T6 construct: purchased in-house (home-made panel, SGC-style construct names)
Description: as §1, §2, §3, §4

T6 sequence (P53350 whole entry): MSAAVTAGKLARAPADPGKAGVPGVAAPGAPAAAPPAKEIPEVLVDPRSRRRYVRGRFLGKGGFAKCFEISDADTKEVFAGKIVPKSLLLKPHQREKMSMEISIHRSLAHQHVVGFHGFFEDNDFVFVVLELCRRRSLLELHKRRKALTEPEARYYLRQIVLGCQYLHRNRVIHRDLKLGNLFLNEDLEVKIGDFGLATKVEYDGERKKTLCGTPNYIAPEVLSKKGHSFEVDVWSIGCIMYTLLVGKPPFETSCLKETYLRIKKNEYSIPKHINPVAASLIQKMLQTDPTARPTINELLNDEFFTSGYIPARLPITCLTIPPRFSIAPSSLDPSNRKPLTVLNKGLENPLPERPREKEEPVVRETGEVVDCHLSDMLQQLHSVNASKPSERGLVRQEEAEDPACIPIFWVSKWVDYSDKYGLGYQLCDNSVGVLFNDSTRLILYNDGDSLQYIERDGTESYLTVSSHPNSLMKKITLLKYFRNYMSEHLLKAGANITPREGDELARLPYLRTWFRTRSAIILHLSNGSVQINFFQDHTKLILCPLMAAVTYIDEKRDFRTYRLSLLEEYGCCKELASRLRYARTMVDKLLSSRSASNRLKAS
T5 sequence (Q86Y07 whole entry): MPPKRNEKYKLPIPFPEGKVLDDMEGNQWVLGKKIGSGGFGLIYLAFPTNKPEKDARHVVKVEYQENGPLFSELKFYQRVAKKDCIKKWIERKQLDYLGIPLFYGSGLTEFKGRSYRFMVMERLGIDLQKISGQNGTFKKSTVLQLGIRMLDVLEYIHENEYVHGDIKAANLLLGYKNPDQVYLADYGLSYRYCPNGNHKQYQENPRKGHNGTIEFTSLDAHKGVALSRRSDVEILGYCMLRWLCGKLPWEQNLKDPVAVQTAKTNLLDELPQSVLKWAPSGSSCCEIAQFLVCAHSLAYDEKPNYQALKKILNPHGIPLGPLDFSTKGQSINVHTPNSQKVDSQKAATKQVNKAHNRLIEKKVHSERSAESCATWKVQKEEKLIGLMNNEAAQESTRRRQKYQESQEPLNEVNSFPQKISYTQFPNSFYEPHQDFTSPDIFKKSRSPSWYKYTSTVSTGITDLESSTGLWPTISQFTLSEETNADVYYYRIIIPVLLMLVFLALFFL
T2 sequence (O94804 whole entry): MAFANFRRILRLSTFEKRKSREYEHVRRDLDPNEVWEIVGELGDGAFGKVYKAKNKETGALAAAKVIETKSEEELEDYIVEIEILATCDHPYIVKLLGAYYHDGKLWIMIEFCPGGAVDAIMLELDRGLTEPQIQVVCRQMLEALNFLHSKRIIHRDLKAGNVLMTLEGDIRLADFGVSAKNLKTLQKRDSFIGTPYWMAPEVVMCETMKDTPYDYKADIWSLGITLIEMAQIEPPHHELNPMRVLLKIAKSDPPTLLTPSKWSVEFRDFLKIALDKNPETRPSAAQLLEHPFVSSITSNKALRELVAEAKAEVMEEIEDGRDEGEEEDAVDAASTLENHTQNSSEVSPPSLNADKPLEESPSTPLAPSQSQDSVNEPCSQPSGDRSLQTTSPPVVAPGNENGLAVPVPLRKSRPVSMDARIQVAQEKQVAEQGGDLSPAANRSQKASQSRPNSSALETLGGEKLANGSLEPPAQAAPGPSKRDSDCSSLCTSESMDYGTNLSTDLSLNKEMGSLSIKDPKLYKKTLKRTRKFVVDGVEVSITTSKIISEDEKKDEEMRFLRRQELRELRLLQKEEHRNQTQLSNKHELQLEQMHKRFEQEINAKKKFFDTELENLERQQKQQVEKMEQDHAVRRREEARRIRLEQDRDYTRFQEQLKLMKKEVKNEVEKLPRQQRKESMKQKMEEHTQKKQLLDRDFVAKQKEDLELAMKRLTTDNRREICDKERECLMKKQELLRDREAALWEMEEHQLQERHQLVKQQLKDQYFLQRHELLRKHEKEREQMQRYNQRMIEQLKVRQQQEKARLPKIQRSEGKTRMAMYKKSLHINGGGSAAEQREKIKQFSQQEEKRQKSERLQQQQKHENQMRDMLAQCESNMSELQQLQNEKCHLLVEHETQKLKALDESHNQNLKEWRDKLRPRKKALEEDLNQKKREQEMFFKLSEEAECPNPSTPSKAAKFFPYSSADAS
T1 sequence (P15056 whole entry): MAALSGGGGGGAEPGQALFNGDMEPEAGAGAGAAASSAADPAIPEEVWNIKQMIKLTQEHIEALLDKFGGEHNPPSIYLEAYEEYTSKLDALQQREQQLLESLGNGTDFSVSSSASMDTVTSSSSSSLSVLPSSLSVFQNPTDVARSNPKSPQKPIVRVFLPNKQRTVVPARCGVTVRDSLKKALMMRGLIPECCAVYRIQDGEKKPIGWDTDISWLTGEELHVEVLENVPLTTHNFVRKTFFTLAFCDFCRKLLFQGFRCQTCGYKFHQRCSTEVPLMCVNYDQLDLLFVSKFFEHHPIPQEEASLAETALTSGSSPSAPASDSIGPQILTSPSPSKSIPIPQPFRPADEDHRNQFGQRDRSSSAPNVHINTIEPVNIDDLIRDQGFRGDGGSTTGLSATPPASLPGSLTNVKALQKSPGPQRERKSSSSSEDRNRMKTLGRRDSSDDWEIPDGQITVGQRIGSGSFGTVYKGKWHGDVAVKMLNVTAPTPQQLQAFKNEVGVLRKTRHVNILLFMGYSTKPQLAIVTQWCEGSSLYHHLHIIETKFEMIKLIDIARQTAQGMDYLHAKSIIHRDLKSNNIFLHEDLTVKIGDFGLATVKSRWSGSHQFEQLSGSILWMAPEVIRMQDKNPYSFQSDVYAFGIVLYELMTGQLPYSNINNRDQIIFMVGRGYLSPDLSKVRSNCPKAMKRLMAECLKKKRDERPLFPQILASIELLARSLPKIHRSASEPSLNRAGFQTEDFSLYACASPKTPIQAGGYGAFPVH

SMILES: Cc1ccc(Nc2nsnc(Nc3ccc(C(N)=O)cc3)c2=O)cc1O [Compound 2, 4-({5-[(3-Hydroxy-4-methylphenyl)amino]-4-oxo-4H-1,2,6-thiadiazin-3-yl}amino)benzamide]
- ΔTm at 10 µM (BRAFA): 0.2 °C
- ΔTm at 10 µM (STK10A): 0.9 °C
- ΔTm at 10 µM (GAKA): 1.4 °C
- ΔTm at 10 µM (PHKG2A): 2.4 °C
- ΔTm at 10 µM (VRK2A): 1.8 °C
- ΔTm at 10 µM (PLK1A): -0.2 °C

SMILES: CNC(=O)c1ccccc1Nc1nsnc(Nc2ccc(N3CCOCC3)cc2)c1=O [Compound 5, N-Methyl-2-({5-[(4-morpholinophenyl)amino]-4-oxo-4H-1,2,6-thiadiazin-3-yl}amino)benzamide]
- ΔTm at 10 µM (BRAFA): 0.4 °C
- ΔTm at 10 µM (STK10A): -0.4 °C
- ΔTm at 10 µM (GAKA): -0.4 °C
- ΔTm at 10 µM (PHKG2A): 0.2 °C
- ΔTm at 10 µM (VRK2A): -0.3 °C
- ΔTm at 10 µM (PLK1A): 0.2 °C

SMILES: Cc1ccc(Nc2nsnc(Nc3ccc4c(c3)CS(=O)(=O)C4)c2=O)cc1O [Compound 3, 3-[(2,2-Dioxido-1,3-dihydrobenzo[c]thiophen-5-yl)amino]-5-[(3-hydroxy-4-methylphenyl)amino]-4H-1,2,6-thiadiazin-4-one]
- ΔTm at 10 µM (BRAFA): 0.7 °C
- ΔTm at 10 µM (STK10A): 2.2 °C
- ΔTm at 10 µM (GAKA): 0 °C
- ΔTm at 10 µM (PHKG2A): 1.6 °C
- ΔTm at 10 µM (VRK2A): 0.1 °C
- ΔTm at 10 µM (PLK1A): 1.1 °C

SMILES: Cc1ccc(Nc2nsnc(Nc3cccc(C(N)=O)c3)c2=O)cc1O [Compound 1, 3-({5-[(3-Hydroxy-4-methylphenyl)amino]-4-oxo-4H-1,2,6-thiadiazin-3-yl}amino)benzamide]
- ΔTm at 10 µM (BRAFA): -0.1 °C
- ΔTm at 10 µM (STK10A): 0.5 °C
- ΔTm at 10 µM (GAKA): -0.3 °C
- ΔTm at 10 µM (PHKG2A): 0.7 °C
- ΔTm at 10 µM (VRK2A): -0.6 °C
- ΔTm at 10 µM (PLK1A): 0.3 °C

SMILES: CNC(=O)c1ccccc1Nc1nsnc(Nc2cccc(CS(C)(=O)=O)c2)c1=O [Compound 4, N-Methyl-2-([5-({3-[(methylsulfonyl)methyl]phenyl}amino)-4-oxo-4H-1,2,6-thiadiazin-3-yl]-amino}-benzamide]
- ΔTm at 10 µM (BRAFA): 0.1 °C
- ΔTm at 10 µM (STK10A): 0.2 °C
- ΔTm at 10 µM (GAKA): -0.4 °C
- ΔTm at 10 µM (PHKG2A): 0.2 °C
- ΔTm at 10 µM (VRK2A): -0.3 °C
- ΔTm at 10 µM (PLK1A): 0.2 °C
